Key:
[1] = xn = mol fraction of the nth substance listed; conditions: 100 kPa, Liquid; for speed of sound: Frequency=3 MHz, Single path-length method; for mass density: Vibrating tube method
[2] = refractive index (Na D-line) (dimensionless); xn = mol fraction of the nth substance listed; conditions: 100 kPa, Liquid, Standard Abbe refractometry

CCOCCO [2-ethoxyethan-1-ol] + CCOC(=O)OCC
Conditions	mass density, [1] [kg/m3]	refractive index, [2]	speed of sound, [1] [m/s]
298.15 K, x2 = 0	925.54	1.4055	1302.8
298.15 K, x2 = 0.0957	929.94	1.4036	1287
298.15 K, x2 = 0.1529	932.54	1.4025	1278.3
298.15 K, x2 = 0.2624	937.43	1.4003	1262.2
298.15 K, x2 = 0.3484	941.21	1.3985	1250
298.15 K, x2 = 0.4447	945.38	1.3963	1236.7
298.15 K, x2 = 0.5468	949.76	1.3939	1223.5
298.15 K, x2 = 0.6539	954.3	1.3912	1210.8
298.15 K, x2 = 0.7721	959.31	1.3882	1198.3
298.15 K, x2 = 0.8793	963.87	1.3855	1188
303.15 K, x2 = 0	920.99	1.4042	1285
303.15 K, x2 = 0.0957	925.24	1.4024	1268.9
303.15 K, x2 = 0.1529	927.76	1.4012	1259.8
303.15 K, x2 = 0.2624	932.5	1.3989	1243.4
303.15 K, x2 = 0.3484	936.17	1.397	1230.7
303.15 K, x2 = 0.4447	940.24	1.3947	1217.3
303.15 K, x2 = 0.5468	944.5	1.3921	1204
303.15 K, x2 = 0.6539	948.94	1.3894	1191.1
303.15 K, x2 = 0.7721	953.83	1.3862	1178.3
303.15 K, x2 = 0.8793	958.31	1.3834	1167.8
308.15 K, x2 = 0	916.41	1.4028	1267.3
308.15 K, x2 = 0.0957	920.51	1.4011	1250.7
308.15 K, x2 = 0.1529	922.94	1.3999	1241.3
308.15 K, x2 = 0.2624	927.54	1.3975	1224.6
308.15 K, x2 = 0.3484	931.11	1.3954	1211.9
308.15 K, x2 = 0.4447	935.08	1.393	1198.3
308.15 K, x2 = 0.5468	939.21	1.3904	1184.7
308.15 K, x2 = 0.6539	943.54	1.3875	1171.6
308.15 K, x2 = 0.7721	948.31	1.3843	1158.4
308.15 K, x2 = 0.8793	952.72	1.3813	1147.6
313.15 K, x2 = 0	911.8	1.4016	1249.6
313.15 K, x2 = 0.0957	915.76	1.3999	1232.5
313.15 K, x2 = 0.1529	918.09	1.3987	1223
313.15 K, x2 = 0.2624	922.55	1.3961	1205.9
313.15 K, x2 = 0.3484	926	1.3939	1193
313.15 K, x2 = 0.4447	929.84	1.3914	1179.3
313.15 K, x2 = 0.5468	933.88	1.3886	1165.6
313.15 K, x2 = 0.6539	938.09	1.3857	1152.1
313.15 K, x2 = 0.7721	942.77	1.3823	1138.6
313.15 K, x2 = 0.8793	947.11	1.3792	1127.5
318.15 K, x2 = 0	907.15	1.4001	1232
318.15 K, x2 = 0.0957	910.93	1.3986	1214.4
318.15 K, x2 = 0.1529	913.21	1.3973	1204.6
318.15 K, x2 = 0.2624	917.51	1.3946	1187.2
318.15 K, x2 = 0.3484	920.86	1.3923	1174.3
318.15 K, x2 = 0.4447	924.57	1.3897	1160.4
318.15 K, x2 = 0.5468	928.49	1.3868	1146.6
318.15 K, x2 = 0.6539	932.6	1.3838	1132.8
318.15 K, x2 = 0.7721	937.19	1.3804	1119
318.15 K, x2 = 0.8793	941.45	1.377	1107.8
323.15 K, x2 = 0	902.46	1.3988	1214.3
323.15 K, x2 = 0.0957	906.11	1.3973	1196.3
323.15 K, x2 = 0.1529	908.28	1.396	1186.3
323.15 K, x2 = 0.2624	912.44	1.3931	1168.7
323.15 K, x2 = 0.3484	915.7	1.3907	1155.6
323.15 K, x2 = 0.4447	919.3	1.388	1141.6
323.15 K, x2 = 0.5468	923.1	1.3851	1127.5
323.15 K, x2 = 0.6539	927.1	1.382	1113.6
323.15 K, x2 = 0.7721	931.58	1.3784	1099.6
323.15 K, x2 = 0.8793	935.76	1.3749	1088.1
